Data set [1] deals with T1, Sodium channel alpha subunits; brain (Types I, II, III) (Rattus norvegicus, UniProt P04775+P04774+P08104). The data set is described as follows: Binding of [3H]batrachotoxin (BTX) to rat brain sodium channel.
For data set [2], the system named is Mus musculus. As to the kind of experiment: Anticonvulsant activity in mice by peroral administration measured at 60 mins before maximum electroshock seizure induction. Format: functional. The settings on record: po.
A short description of data set [3]: Significant mortality was observed in mice caused by the compound. It counts as ADME. The settings on record: mouse, in vivo.
Data set [4] relates to Mus musculus. As to the kind of experiment: Anticonvulsant activity in mice by intraperitoneal administration measured at 30 mins before maximum electroshock seizure induction. Format: functional. The settings on record: ip.
In data set [5] the target is T1, Sodium channel alpha subunits; brain (Types I, II, III). As to the kind of experiment: Binding of [3H]saxitoxin (STX) to rat brain sodium channel.
Data set [6] is described as follows: Therapeutic index TI (ED50 rotorod/MES) of the compound. The following applies: mouse; read-out: TI. (In the rotarod test animals must keep their balance on a rotating rod.)
The subject of data set [7] is Mus musculus. As to the kind of experiment: Psychomotor side-effect in mice by rotarod test by intraperitoneal administration at 60 mins. The following applies: ip, 1 h. Format: functional.

One may read the IC50 as the concentration that inhibits the measured activity by half. A low value points to higher potency. For orientation: ED50 means the midpoint of the dose-response relation. Low readings indicate an effect at a small dose, high ones a need for a large dose. One may read the LD50 as the dose expected to kill half of the subjects tested. Regarding `COc1ccc2c(c1)C13CCCCC1C(C2)N(C)CC3` (stereo not drawn) [RACEMETHORPHAN], the IC50 in data set [1] is 1.3 µM; in data set [5] it was greater than 300 µM. Also, the ED50 worked out at 12.9 mg/kg in data set [2] and 10.1 mg/kg in data set [4]. Further, the LD50 in data set [3] turned out to be 234 mg/kg.
On to `CS(=O)(=O)O.C[C@H](NCc1ccc(OCc2cccc(F)c2)cc1)C(N)=O` [SAFINAMIDE MESYLATE], for which the 50% effective dose (ED50) in data set [2] was 8 mg/kg; in data set [4], 6.9 mg/kg; in data set [7], 626 mg/kg. The selectivity ratio in data set [6] amounted to 78. In addition, in data set [5], the IC50 was greater than 300 µM.
On to `CNC(=O)[C@@H](C)N1CCC23CCCCC2[C@@H]1Cc1ccc(OCc2cccc(F)c2)cc13` (stereo partly specified), for which the IC50 in data set [1] is 5.3 µM; in data set [5], greater than 300 µM. In data set [6], the selectivity ratio came to 4. For the same molecule, the figures for the ED50 in data set [4] and in data set [7] were 41.6 mg/kg and 152 mg/kg, respectively.
Consider `C[C@H](C(N)=O)N1CCC23CCCCC2[C@@H]1Cc1ccc(OCc2cccc(F)c2)cc13` (stereo partly specified), for which the IC50 in data set [1] was 2.6 µM; in data set [5], greater than 300 µM. The median effective dose (ED50) was 50.8 mg/kg in data set [2], 18.1 mg/kg in data set [4] and 176 mg/kg in data set [7]. Besides, the selectivity ratio in data set [6] was found to be 10.

The values above are taken from ChEMBL document CHEMBL1132661, “Synthesis and preliminary biological evaluation of new alpha-amino amide anticonvulsants incorporating a dextromethorphan moiety” (Bioorg Med Chem Lett, 1999).
